The values below come from patent publication US20120225061A1, “TETRASUBSTITUTED CYCLOHEXYL COMPOUNDS AS KINASE INHIBITORS” (priority 2011, published 2012).

A value given as a limit tells only on which side of the number the result lay.

The target of assay [1] is Pim2 kinase (Homo sapiens, UniProt Q9P1W9). The assay is described as follows: Pim2 AlphaScreen assay (high ATP).
In assay [2] the test system is KMS11 (human myeloma cell line). The assay is described as follows: Cell proliferation assay (CellTiter-Glo) in KMS11 cells. It counts as cell-based. As to conditions: KMS-11, 72 h, Table 5, 3 days, read-out: KMS11-luc EC50. The procedure, abridged:
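KMS11 cells at 2000 per well in IMDM/10% FBS were exposed to compound for 3 days. Viability was read by CellTiter-Glo luminescence.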
In general terms: Cellular ATP, detected with luciferase, serves as a proxy for viable cell number.

The target in assay [3] is Pim1 kinase (Homo sapiens, UniProt P11309). The assay is described as follows: Pim1 AlphaScreen assay (high ATP). For orientation: In Alpha technology, singlet oxygen from a donor bead excites a nearby acceptor bead.
Chain of Pim1 kinase (P11309 whole entry): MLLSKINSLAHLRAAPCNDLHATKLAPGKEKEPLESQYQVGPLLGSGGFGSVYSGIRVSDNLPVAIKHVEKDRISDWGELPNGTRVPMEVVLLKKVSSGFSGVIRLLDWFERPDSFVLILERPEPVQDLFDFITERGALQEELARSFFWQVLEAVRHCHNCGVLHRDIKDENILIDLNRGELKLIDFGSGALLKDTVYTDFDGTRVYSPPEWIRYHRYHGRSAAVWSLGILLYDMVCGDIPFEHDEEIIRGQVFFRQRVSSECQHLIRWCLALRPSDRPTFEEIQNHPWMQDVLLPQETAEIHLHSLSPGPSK
Procedure: The activity of Pim 1, Pim 2, & Pim 3 is measured using a homogeneous bead based system quantifying the amount of phosphorylated peptide substrate resulting from kinase-catalyzed phosphoryl transfer to a peptide substrate. Compounds to be tested are dissolved in 100% DMSO and directly distributed to a white 384-well plate at 0.25 μl per well. […] This is followed by the addition of 5 μl/well of Pim 1, Pim 2 or Pim 3 kinase in assay buffer (concentrations described below). Final assay concentrations (described below) are in 2.5% DMSO. The reactions are performed for ˜2 hours, then stopped by the addition of 10 μl of 0.75 μg/ml anti-phospho Ser/Thr antibody (Cell Signaling), 10 μg/ml Protein A AlphaScreen beads (Perkin Elmer), and 10 μg/ml streptavidin coated AlphaScreen beads in stop/detection buffer (50 mM EDTA, 95 mM Tris, pH=7.5, 0.01% Tween-20). The stopped reactions are incubated overnight in the dark. The phosphorylated peptide is detected via an oxygen anion initiated chemiluminescence/fluorescence cascade using the Envision plate reader (Perkin Elmer).
The target in assay [4] is Pim3 kinase (Homo sapiens, UniProt Q86V86). The assay is described as follows: Pim3 AlphaScreen assay (high ATP).

Chain of Pim2 kinase (Q9P1W9 whole entry): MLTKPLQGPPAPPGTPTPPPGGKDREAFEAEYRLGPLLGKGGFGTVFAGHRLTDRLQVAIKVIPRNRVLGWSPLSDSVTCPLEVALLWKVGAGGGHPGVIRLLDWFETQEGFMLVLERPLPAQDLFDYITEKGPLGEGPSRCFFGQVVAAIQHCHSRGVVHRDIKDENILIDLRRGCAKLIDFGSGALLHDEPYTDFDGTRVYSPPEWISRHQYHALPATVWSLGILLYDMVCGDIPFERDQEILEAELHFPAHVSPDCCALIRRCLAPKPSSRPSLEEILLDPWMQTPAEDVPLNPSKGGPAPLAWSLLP

As a reminder, the IC50 is the concentration needed to halve the response being measured. High values mean weaker potency in that assay, low ones greater potency in that assay. By EC50 is commonly meant the midpoint of the concentration-response curve. As for `C[C@H]1C[C@@H](c2ccncc2NC(=O)c2ccc(F)c(-c3c(F)cc(OCC(=O)N(C)C)cc3F)n2)C[C@@H](N)[C@]1(C)O` [Example 93, N-(4-((1R,3R,4R,5S)-3-amino-4-hydroxy-4,5-dimethylcyclohexyl)pyridin-3-yl)-6-(4-(2-(dimethylamino)-2-oxoethoxy)-2,6-difluorophenyl)-5-fluoropicolinamide], the values for the 50% inhibitory concentration (IC50) in assay [1], in assay [3] and in assay [4] were 8.44 nM, 0.09 nM and 1.23 nM, respectively. Further, the half-maximal effective concentration (EC50) in assay [2] stood at 1400 nM.

Take `Cc1noc(C)c1-c1cc(F)c(-c2nc(C(=O)Nc3cnccc3[C@H]3C[C@@H](N)[C@](C)(O)[C@@H](C)C3)ccc2F)c(F)c1` [Example 94, N-(4-((1R,3R,4R,5S)-3-amino-4-hydroxy-4,5-dimethylcyclohexyl)pyridin-3-yl)-6-(4-(3,5-dimethylisoxazol-4-yl)-2,6-difluorophenyl)-5-fluoropicolinamide]: the IC50 was found to be 114 nM in assay [1], 0.3 nM in assay [3] and 47.8 nM in assay [4]. The EC50 in assay [2] was 3230 nM.

Take `C[C@H]1C[C@@H](c2ccncc2NC(=O)c2ccc(F)c(-c3c(F)cc(C4(O)CCC4)cc3F)n2)C[C@@H](N)[C@]1(C)O` [Example 95, N-(4-((1R,3R,4R,5S)-3-amino-4-hydroxy-4,5-dimethylcyclohexyl)pyridin-3-yl)-6-(2,6-difluoro-4-(1-hydroxycyclobutyl)phenyl)-5-fluoropicolinamide]: the half-maximal inhibitory concentration (IC50) in assay [1] was found to be 3.85 nM; in assay [3] it was 0.04 nM; in assay [4], 2.37 nM. Further, the EC50 in assay [2] was 174 nM.

On to `C[C@@H]1C[C@H](c2ccncc2NC(=O)c2ccc(F)c(-c3c(F)cc(OC4CCOCC4)cc3F)n2)C[C@H](O)[C@@]1(C)O` [Example 96, 6-(2,6-difluoro-4-(tetrahydro-2H-pyran-4-yloxy)phenyl)-N-(4-((1S,3S,4S,5R)-3,4-dihydroxy-4,5-dimethylcyclohexyl)pyridin-3-yl)-5-fluoropicolinamide], for which the figures for the IC50 in assay [1], in assay [3] and in assay [4] were 8720 nM, 18.7 nM and 2620 nM, respectively. Also, the EC50 in assay [2] is greater than 10000 nM.

With `C[C@H]1C[C@@H](c2ccncc2NC(=O)c2nc(-c3c(F)cc(C(C)(C)O)cc3F)c(F)cc2N)C[C@@H](O)[C@]1(C)O` [Example 97, 3-amino-6-(2,6-difluoro-4-(2-hydroxypropan-2-yl)phenyl)-N-(4-((1R,3R,4R,5S)-3,4-dihydroxy-4,5-dimethylcyclohexyl)pyridin-3-yl)-5-fluoropicolinamide], the IC50 in assay [1] is 28.9 nM; in assay [3], 0.24 nM; in assay [4] it was 8.24 nM. Besides, the EC50 in assay [2] was 405 nM.

Regarding `COCCOc1cc(F)c(-c2nc(C(=O)Nc3cnccc3[C@H]3C[C@@H](O)[C@](C)(O)[C@@H](C)C3)c(N)cc2F)c(F)c1` [Example 98, 3-amino-6-(2,6-difluoro-4-(2-methoxyethoxy)phenyl)-N-(4-((1R,3R,4R,5S)-3,4-dihydroxy-4,5-dimethylcyclohexyl)pyridin-3-yl)-5-fluoropicolinamide], the IC50 in assay [1] is 133 nM; in assay [3] it was 0.83 nM; in assay [4], 40.2 nM. Also, in assay [2], the EC50 is 427 nM.

For the molecule `CC(C)Oc1cc(F)c(-c2nc(C(=O)Nc3cnccc3[C@H]3C[C@@H](O)[C@](C)(O)[C@@H](C)C3)c(N)cc2F)c(F)c1` [Example 99, 3-amino-6-(2,6-difluoro-4-isopropoxyphenyl)-N-(4-((1R,3R,4R,5S)-3,4-dihydroxy-4,5-dimethylcyclohexyl)pyridin-3-yl)-5-fluoropicolinamide], the IC50 in assay [1] was 107 nM; in assay [3] it was 0.96 nM; in assay [4], 45.5 nM. Also, the EC50 in assay [2] is 1150 nM.

As for `COCCCOc1cc(F)c(-c2nc(C(=O)Nc3cnccc3[C@H]3C[C@@H](N)[C@](C)(O)[C@@H](C)C3)ccc2F)c(F)c1` [Example 100, N-(4-((1R,3R,4R,5S)-3-amino-4-hydroxy-4,5-dimethylcyclohexyl)pyridin-3-yl)-6-(2,6-difluoro-4-(3-methoxypropoxy)phenyl)-5-fluoropicolinamide], the IC50 in assay [1] came out at 2.15 nM; in assay [3] it was 0.04 nM; in assay [4], 0.69 nM. For the same molecule, the EC50 in assay [2] came out at 340 nM.

For the molecule `C[C@H]1C[C@@H](c2ccncc2NC(=O)c2ccc(F)c(-c3c(F)cc(OCC4CCOCC4)cc3F)n2)C[C@@H](N)[C@]1(C)O` [Example 101, N-(4-((1R,3R,4R,5S)-3-amino-4-hydroxy-4,5-dimethylcyclohexyl)pyridin-3-yl)-6-(2,6-difluoro-4-((tetrahydro-2H-pyran-4-yl)methoxy)phenyl)-5-fluoropicolinamide], the IC50 in assay [1] turned out to be 2.21 nM; in assay [3], 0.04 nM; in assay [4], 0.85 nM. For the same molecule, the EC50 in assay [2] was 334 nM.

Consider `C[C@H]1C[C@@H](c2ccncc2NC(=O)c2ccc(F)c(-c3c(F)cc4c(c3F)OCC4)n2)C[C@@H](N)[C@]1(C)O` [Example 102, N-(4-((1R,3R,4R,5S)-3-amino-4-hydroxy-4,5-dimethylcyclohexyl)pyridin-3-yl)-6-(5,7-difluoro-2,3-dihydrobenzofuran-6-yl)-5-fluoropicolinamide], for which the IC50 in assay [1] is 1.5 nM; in assay [3], 0.02 nM; in assay [4], 0.61 nM. In addition, in assay [2], the EC50 came out at 175 nM.

In the case of `C[C@H]1C[C@@H](c2ccncc2NC(=O)c2ccc(F)c(-c3c(F)cc(C(C)(C)C(=O)O)cc3F)n2)C[C@@H](N)[C@]1(C)O` [Example 103, 2-(4-(6-(4-((1R,3R,4R,5S)-3-amino-4-hydroxy-4,5-dimethylcyclohexyl)pyridin-3-ylcarbamoyl)-3-fluoropyridin-2-yl)-3,5-difluorophenyl)-2-methylpropanoic acid], the figures for the IC50 in assay [1], in assay [3] and in assay [4] were 14.1 nM, 1.43 nM and 58.9 nM, respectively. The EC50 in assay [2] is greater than 10000 nM.

For the molecule `C[C@H]1C[C@@H](c2ccncc2NC(=O)c2ccc(F)c(-c3c(F)cc(C(F)F)cc3F)n2)C[C@@H](N)[C@]1(C)O` [Example 104, N-(4-((1R,3R,4R,5S)-3-amino-4-hydroxy-4,5-dimethylcyclohexyl)pyridin-3-yl)-6-(4-(difluoromethyl)-2,6-difluorophenyl)-5-fluoropicolinamide], the IC50 in assay [1] came to 7.56 nM; in assay [3], 0.07 nM; in assay [4] it was 4.37 nM. In addition, in assay [2], the concentration for a half-maximal effect (EC50) came out at 823 nM.

With `C[C@H]1C[C@@H](c2ccncc2NC(=O)c2ccc(F)c(-c3c(F)cc(C4(O)CCC4)cc3F)n2)C[C@@H](O)[C@]1(C)O` [Example 105, 6-(2,6-difluoro-4-(1-hydroxycyclobutyl)phenyl)-N-(4-((1R,3R,4R,5S)-3,4-dihydroxy-4,5-dimethylcyclohexyl)pyridin-3-yl)-5-fluoropicolinamide], the IC50 in assay [1] turned out to be 120 nM; in assay [3] it was 0.55 nM; in assay [4], 78.3 nM. Also, in assay [2], the EC50 was 2980 nM.

Take `CC(C)Oc1cc(F)c(-c2nc(C(=O)Nc3cnccc3[C@H]3C[C@@H](O)[C@](C)(O)[C@@H](C)C3)ccc2F)c(F)c1` [Example 106, 6-(2,6-difluoro-4-isopropoxyphenyl)-N-(4-((1R,3R,4R,5S)-3,4-dihydroxy-4,5-dimethylcyclohexyl)pyridin-3-yl)-5-fluoropicolinamide]: the IC50 in assay [1] worked out at 183 nM; in assay [3], 0.42 nM; in assay [4] it was 69.2 nM. Further, the EC50 in assay [2] came out at 1540 nM.

Take `COCCOc1cc(F)c(-c2nc(C(=O)Nc3cnccc3[C@H]3C[C@@H](O)[C@](C)(O)[C@@H](C)C3)ccc2F)c(F)c1` [Example 107, 6-(2,6-difluoro-4-(2-methoxyethoxy)phenyl)-N-(4-((1R,3R,4R,5S)-3,4-dihydroxy-4,5-dimethylcyclohexyl)pyridin-3-yl)-5-fluoropicolinamide]: the IC50 came to 253 nM in assay [1], 0.89 nM in assay [3] and 74.2 nM in assay [4]. In addition, the EC50 in assay [2] was 3180 nM.

Consider `C[C@H]1C[C@@H](c2ccncc2NC(=O)c2ccc(F)c(-c3c(F)cc(C4CCOCC4)cc3F)n2)C[C@@H](O)[C@]1(C)O` [Example 108, 6-(2,6-difluoro-4-(tetrahydro-2H-pyran-4-yl)phenyl)-N-(4-((1R,3R,4R,5S)-3,4-dihydroxy-4,5-dimethylcyclohexyl)pyridin-3-yl)-5-fluoropicolinamide], for which the values for the concentration for half-maximal inhibition (IC50) in assay [1], in assay [3] and in assay [4] were 66.2 nM, 0.2 nM and 30.7 nM, respectively. The EC50 in assay [2] stood at 206 nM.

Consider `C[C@H]1C[C@@H](c2ccncc2NC(=O)c2ccc(F)c(-c3c(F)cc(N4CCOCC4)cc3F)n2)C[C@@H](O)[C@]1(C)O` [Example 109, 6-(2,6-difluoro-4-morpholinophenyl)-N-(4-((1R,3R,4R,5S)-3,4-dihydroxy-4,5-dimethylcyclohexyl)pyridin-3-yl)-5-fluoropicolinamide], for which the IC50 was 138 nM in assay [1], 0.23 nM in assay [3] and 41.3 nM in assay [4]. Also, the EC50 in assay [2] was found to be 781 nM.

For the molecule `C[C@H]1C[C@@H](c2ccncc2NC(=O)c2ccc(F)c(-c3c(F)cc(OCCO)cc3F)n2)C[C@@H](O)[C@]1(C)O` [Example 111, 6-(2,6-difluoro-4-(2-hydroxyethoxy)phenyl)-N-(4-((1R,3R,4R,5S)-3,4-dihydroxy-4,5-dimethylcyclohexyl)pyridin-3-yl)-5-fluoropicolinamide], the results for the half-maximal inhibitory concentration (IC50) in assay [1], in assay [3] and in assay [4] were 173 nM, 0.83 nM and 38.7 nM, respectively. Moreover, the EC50 in assay [2] worked out at 538 nM.

Consider `C[C@H]1C[C@@H](c2ccncc2NC(=O)c2ccc(F)c(-c3c(F)cc(OC4CCNCC4)cc3F)n2)C[C@@H](O)[C@]1(C)O` [Example 112, 6-(2,6-difluoro-4-(piperidin-4-yloxy)phenyl)-N-(4-((1R,3R,4R,5S)-3,4-dihydroxy-4,5-dimethylcyclohexyl)pyridin-3-yl)-5-fluoropicolinamide], for which the figures for the IC50 in assay [1], in assay [3] and in assay [4] were 56.5 nM, 0.11 nM and 18.3 nM, respectively. For the same molecule, the EC50 in assay [2] was 4150 nM.
